Data published in US20250213589A1, “METHODS AND COMPOSITIONS FOR TE[…]” (priority 2023, published 2025).

Experiments:
[1] = FIG. 1: testosterone concentration in a patient at various time points after 200 mg of testosterone; conditions: after administration; FIG. 1, 200 mg of testosterone
Method: FIG. 1 is a phase diagram of the testosterone concentration in a patient at various time points after being administered 200 mg of testosterone.
Hormone levels were measured after co-administration of 200 mg of testosterone and 6.25 mg of enclomiphene for 30 days. Testosterone concentration was measured at +4 hours and +12 hours after administration. […] Testosterone concentration was measured at +4 hours after administration to capture the peak testosterone concentration (cMax) and +12 hours after administration to capture the trough testosterone concentration (cMin) to determine if endogenous testosterone suppression is prevented with the enclomiphene.

[2] = test system: endogenous testosterone, LH, and FSH production; test: Example 3: hormone levels after administration of enclomiphene (pre-TRT); type: in vivo, human; conditions: after 6.25 mg of enclomiphene; n=1
Method: This example investigated the effects of administering a SERM (enclomiphene) on endogenous testosterone, LH, and FSH production.
Hormone levels were measured after administration of 6.25 mg of enclomiphene (see Table 3, n=1).

Structure (SMILES) | time of testosterone peak [1] [h] | time until testosterone is out of the system [1] [h] | Calculated free testosterone levels [2] [pg/mL] | Sex Hormone Binding Globulin [2] [nmol/L] | Testosterone, Bioavailable [2] [ng/dL] | Testosterone, Free [2] [pg/mL] | Testosterone, Total, MS [2] [ng/dL] | increase of calculated free testosterone from baseline (114 pg/mL) [2] [%]
C[C@]12CC[C@H]3[C@@H](CCC4=CC(=O)CC[C@@]43C)[C@@H]1CC[C@@H]2O [Testosterone, testosterone] | 3 to 5 | ≤ 12 | – | – | – | – | – | –
CCN(CC)CCOc1ccc(/C(=C(/Cl)c2ccccc2)c2ccccc2)cc1 [enclomiphene] | – | – | 197 | 20 | 322.9 | 153.7 | 724 | 73
